Patent publication US6380198B1 (Laboratoire Medidom S.A., priority 1997, dated 2002)
Several values for one entry are separate records, joined by “and”; a condition that tells them apart may be missing. Identical values can stand only once.

Key:
[1] = tested on: intraocular pressure of rabbits showing normal baseline intraocular pressure; experiment: Intraocular pressure in rabbits with normal intraocular pressure after topical instillation; type: in vivo, rabbit (Vienna Blue, pigmented); settings: 50 μl eye-drops; 0.050% flunarizine, equimolar comparators, 0.5% timolol
Procedure: The effects of the agent of the invention on the intraocular pressure of rabbits showing normal baseline intraocular pressure were evaluated in comparison with the action of a placebo, and with that of various other calcium channel blocking agents. Female pigmented rabbits of the Vienna Blue strain were used (supplied by Charles River Italiana, of Calco (CO)). The age of the animals at the time of starting the experimentation was 9 weeks, and their weight was 2.0-2.5 kg.
The choice of a species with pigmented iris is due to the fact that the latter represents a reliable model for the evaluation of possible modifications of the intraocular pressure caused by the products under test. The strain chosen is genetically defined, so as to limit to a minimum the variability of the biological characteristics between one animal and the other.
The animals were kept in rooms maintained under constant and controlled conditions of temperature and humidity, illuminated for 12 hours a day with artificial light and with continuous renovation of the air. The feed consisted of a standard diet having a constant and known composition, and both feed and water were available ad libitum during the whole period of the test. The rabbits were stabled for 21 days before starting the test, so as to allow a sufficient acclimatation and to suitably evaluate the health conditions of the rabbits. Each experimental group consisted of 4 animals, which were allotted to the treatment groups in a randomised way.
Each different group of animals received, by instillation in the right conjunctival fornix, 50 μl of the following products:
The weight concentrations of the various agents under test are chosen so as to correspond to the same molar concentration.
The pressure in the treated eye was measured by flattening tonometer (TonopenXL®, Mentor), 15 minutes before the instillation of the eyerops (time 0) and then 30, 60, 90, 120, 180 and 240 minutes after. As a local anaesthetic, 5 minutes before carrying out each measurement 25 μl of a commercial ophthalmic solution containing 0.4% oxybuprocaine hydrochloride (Novesine®, Sandoz) was instilled. To carry out the measurement the rabbits were placed in a suitably designed cage, that prevents any sudden movement of the animal under test.
For each animal and at each of the times listed above the average of three subsequent measurements was calculated and recorded, each one said measurements being made after 1 minute from the previous one. The intraocular pressure values at the various times were compared with the values obtained before the treatment, by means of the Student's “t” test. The comparisons between different groups were made by processing the data by the variance analysis (ANOVA) and, where possible, by the Student's “t” test for the comparison of two different experimental groups. Values of p<0.05 were considered to be statistically significant.

[2] = tested on: intraocular pressure of rabbits with ocular hypertension; experiment: Intraocular pressure in rabbits with ocular hypertension induced by α-chymotrypsin; type: in vivo, rabbit (Vienna Blue, pigmented); settings: for Intraocular pressure (mmHg) at the time (min): 30, average ± S.D. / Intraocular pressure (mmHg) at the time (min): 60, average ± S.D. / Intraocular pressure (mmHg) at the time (min): 90, average ± S.D. / Intraocular pressure (mmHg) at the time (min): 120, average ± S.D. / Intraocular pressure (mmHg) at the time (min): 180, average ± S.D. / Intraocular pressure (mmHg) at the time (min): 240, average ± S.D. / Intraocular pressure (mmHg) at the time (min): 0, average ± S.D. / Intraocular pressure (mmHg) at the time (min): 30 / Intraocular pressure (mmHg) at the time (min): 60 / Intraocular pressure (mmHg) at the time (min): 90 / Intraocular pressure (mmHg) at the time (min): 120 / Intraocular pressure (mmHg) at the time (min): 180 / Intraocular pressure (mmHg) at the time (min): 240 / Intraocular pressure (mmHg) at the time (min): 0: Table 4, 50 μl; for Intraocular pressure (mmHg) at the time (min): 30, average ± S.D. / Intraocular pressure (mmHg) at the time (min): 60, average ± S.D. / Intraocular pressure (mmHg) at the time (min): 90, average ± S.D. / Intraocular pressure (mmHg) at the time (min): 120, average ± S.D. / Intraocular pressure (mmHg) at the time (min): 180, average ± S.D. / Intraocular pressure (mmHg) at the time (min): 240, average ± S.D. / Intraocular pressure (mmHg) at the time (min): 0, average ± S.D.: average ± S.D. of 4 rabbits; for Intraocular pressure (mmHg) at the time (min): 30, average ± S.D. / Intraocular pressure (mmHg) at the time (min): 30: 30 min after instillation; for Intraocular pressure (mmHg) at the time (min): 60, average ± S.D. / Intraocular pressure (mmHg) at the time (min): 60: 60 min after instillation; for Intraocular pressure (mmHg) at the time (min): 90, average ± S.D. / Intraocular pressure (mmHg) at the time (min): 90: 90 min after instillation; for Intraocular pressure (mmHg) at the time (min): 120, average ± S.D. / Intraocular pressure (mmHg) at the time (min): 120: 120 min after instillation; for Intraocular pressure (mmHg) at the time (min): 180, average ± S.D. / Intraocular pressure (mmHg) at the time (min): 180: 180 min after instillation; for Intraocular pressure (mmHg) at the time (min): 240, average ± S.D. / Intraocular pressure (mmHg) at the time (min): 240: 240 min after instillation; for Intraocular pressure (mmHg) at the time (min): 0, average ± S.D. / Intraocular pressure (mmHg) at the time (min): 0: time 0 = 15 min before instillation (baseline); for Intraocular pressure (mmHg) at the time (min): 30 / Intraocular pressure (mmHg) at the time (min): 60 / Intraocular pressure (mmHg) at the time (min): 90 / Intraocular pressure (mmHg) at the time (min): 120 / Intraocular pressure (mmHg) at the time (min): 180 / Intraocular pressure (mmHg) at the time (min): 240 / Intraocular pressure (mmHg) at the time (min): 0: individual rabbit, right eye
Procedure: Rabbits of the same type as those described in the previous section were used for the following tests.
In the rabbit, the injection of this enzyme in the posterior chamber causes, after one month from the administration, an effect of ocular hypertension.
At the end of the quarantine period the rabbits were anaesthetised by intramuscular administration of ketamine hydrochloride and xylazine hydrochloride (RBI). The right eye was gently pushed outwardly after instilling 25 μl of Novesine® eye-drops, containing oxybuprocaine as an anaesthetic; then, a sterile solution of σ-chymotrypsin (SIGMA, Milan; 150 units in 100 μl of physiologic sterile solution) was injected in the posterior chamber of the right eye by means of a 30G sterile needle. After the administration of the enzyme, the eye was thoroughly washed with physiologic sterile solution in order to remove any traces of α-chymotrypsin which could damage the ocular tissues. Then, 2 drops of a commercial ophthalmic antibiotic solution (Colbiocin®, SIFI S.p.A., containing chloramphenicol, rolitetracycline, colistin methanesulphonate) were instilled. The treatment was carried out 3 times a day (at 8.00 a.m., 12.00 a.m. and 6.00 p.m.) for one week after the administration of α-chymotrypsin. The rabbits were employed in the tests after one month from the induction of ocular hypertension by means of the enzyme.
The rabbits, divided also in this case in groups of 4 animals, were treated by instillation of 50 μl of the product under test in the right conjunctival fornix.
The intraocular pressure in the treated eye was measured, according to the same procedure as in the previous tests, 15 minutes before the instillation of the eye-drops and 30, 60, 90, 120, 180 and 240 minutes after. The values obtained were statistically analysed according to the criteria mentioned in the foregoing.
The experimental conditions were exactly the same as before.

[3] = eye-drops with 0.010% flunarizine
[4] = eye-drops with 0.050% flunarizine
[5] = eye-drops with 0.100% flunarizine

## Fc1ccc(C(c2ccc(F)cc2)N2CCN(C/C=C/c3ccccc3)CC2)cc1 [flunarizine]
[1]
  Effect on intraocular pressure in rabbits with normal pressure, in words: better performance in lowering the intraocular pressure than timolol alone
[2]; 50 μl eye-drops, 0.050% flunarizine, equimolar comparators, 0.5% timolol
  Effect on intraocular pressure in rabbits with ocular hypertension, in words: effectiveness comparable to or better than that of timolol alone
[2]; [3]
  Intraocular pressure (mmHg) at the time (min): 30, average ± S.D.: 55.0 ± 5.35 mmHg
  Intraocular pressure (mmHg) at the time (min): 60, average ± S.D.: 52.7 ± 5.18 mmHg
  Intraocular pressure (mmHg) at the time (min): 90, average ± S.D.: 52.5 ± 5.44 mmHg
  Intraocular pressure (mmHg) at the time (min): 120, average ± S.D.: 55.7 ± 5.18 mmHg
  Intraocular pressure (mmHg) at the time (min): 180, average ± S.D.: 56.5 ± 6.60 mmHg
  Intraocular pressure (mmHg) at the time (min): 240, average ± S.D.: 57.5 ± 6.55 mmHg
  Intraocular pressure (mmHg) at the time (min): 0, average ± S.D.: 57.5 ± 6.13 mmHg
  Intraocular pressure (mmHg) at the time (min): 30: 50 mmHg and 58 mmHg and 61 mmHg and 51 mmHg
  Intraocular pressure (mmHg) at the time (min): 60: 48 mmHg and 55 mmHg and 59 mmHg and 49 mmHg
  Intraocular pressure (mmHg) at the time (min): 90: 49 mmHg and 53 mmHg and 60 mmHg and 48 mmHg
  Intraocular pressure (mmHg) at the time (min): 120: 51 mmHg and 58 mmHg and 62 mmHg and 52 mmHg
  Intraocular pressure (mmHg) at the time (min): 180: 50 mmHg and 60 mmHg and 64 mmHg and 52 mmHg
  Intraocular pressure (mmHg) at the time (min): 240: 52 mmHg (2×) and 61 mmHg and 65 mmHg
  Intraocular pressure (mmHg) at the time (min): 0: 52 mmHg and 60 mmHg and 65 mmHg and 53 mmHg
[2]; [4]
  Intraocular pressure (mmHg) at the time (min): 30, average ± S.D.: 39.5 ± 7.32 mmHg
  Intraocular pressure (mmHg) at the time (min): 60, average ± S.D.: 37.7 ± 7.27 mmHg
  Intraocular pressure (mmHg) at the time (min): 90, average ± S.D.: 40.7 ± 7.63 mmHg
  Intraocular pressure (mmHg) at the time (min): 120, average ± S.D.: 42.2 ± 7.36 mmHg
  Intraocular pressure (mmHg) at the time (min): 180, average ± S.D.: 47.0 ± 8.28 mmHg
  Intraocular pressure (mmHg) at the time (min): 240, average ± S.D.: 47.2 ± 8.18 mmHg
  Intraocular pressure (mmHg) at the time (min): 0, average ± S.D.: 47.7 ± 9.03 mmHg
  Intraocular pressure (mmHg) at the time (min): 30: 47 mmHg and 38 mmHg and 30 mmHg and 43 mmHg
  Intraocular pressure (mmHg) at the time (min): 60: 45 mmHg and 37 mmHg and 28 mmHg and 41 mmHg
  Intraocular pressure (mmHg) at the time (min): 90: 50 mmHg and 38 mmHg and 32 mmHg and 43 mmHg
  Intraocular pressure (mmHg) at the time (min): 120: 51 mmHg and 39 mmHg and 34 mmHg and 45 mmHg
  Intraocular pressure (mmHg) at the time (min): 180: 56 mmHg and 44 mmHg and 37 mmHg and 51 mmHg
  Intraocular pressure (mmHg) at the time (min): 240: 56 mmHg and 45 mmHg and 37 mmHg and 51 mmHg
  Intraocular pressure (mmHg) at the time (min): 0: 57 mmHg and 46 mmHg and 36 mmHg and 52 mmHg
[2]; [5]
  Intraocular pressure (mmHg) at the time (min): 30, average ± S.D.: 42.2 ± 5.31 mmHg
  Intraocular pressure (mmHg) at the time (min): 60, average ± S.D.: 39.2 ± 4.57 mmHg
  Intraocular pressure (mmHg) at the time (min): 90, average ± S.D.: 43.0 ± 5.71 mmHg
  Intraocular pressure (mmHg) at the time (min): 120, average ± S.D.: 45.0 ± 5.71 mmHg
  Intraocular pressure (mmHg) at the time (min): 180, average ± S.D.: 48.5 ± 6.24 mmHg
  Intraocular pressure (mmHg) at the time (min): 240, average ± S.D.: 49.7 ± 5.73 mmHg
  Intraocular pressure (mmHg) at the time (min): 0, average ± S.D.: 49.7 ± 6.6 mmHg
  Intraocular pressure (mmHg) at the time (min): 30: 48 mmHg and 40 mmHg and 36 mmHg and 45 mmHg
  Intraocular pressure (mmHg) at the time (min): 60: 45 mmHg and 38 mmHg and 34 mmHg and 40 mmHg
  Intraocular pressure (mmHg) at the time (min): 90: 49 mmHg and 41 mmHg and 36 mmHg and 46 mmHg
  Intraocular pressure (mmHg) at the time (min): 120: 51 mmHg and 43 mmHg and 38 mmHg and 48 mmHg
  Intraocular pressure (mmHg) at the time (min): 180: 56 mmHg and 47 mmHg and 41 mmHg and 50 mmHg
  Intraocular pressure (mmHg) at the time (min): 240: 57 mmHg and 49 mmHg and 43 mmHg and 50 mmHg
  Intraocular pressure (mmHg) at the time (min): 0: 58 mmHg and 48 mmHg and 42 mmHg and 51 mmHg
